{"source": "patent US20230107216A1", "about": "“PANTETHEINE DERIVATIVES AND USES THEREOF” (Comet Therapeutics, Inc., priority 2018, published 2023)", "key": {"[1]": {"test_system": "Peripheral blood mononuclear cells co-cultured with venular endothelial cells (Sag system)", "assay": "BioMAP Sag system (T-cell ligands)", "type": "cell-based, human", "settings": "10 uM; procedure of Example 828", "method": "The BioMAP platform (BioMAP® Diversity PLUS® Panel from Eurofins) is an in vitro phenotypic profiling technology that screened the compounds of the present disclosure (hereafter indicated as test agents) in human primary cell-based systems modelling complex tissue and disease states. The BioMAP assays were performed using the Eurofin's BioMAP Technology Platform as (see references 1 to 13 in the example 824 section) to model different diseases on primary cell-based model systems. These systems consisted of either single primary cell types or co-culture cells. Adherent cell types were cultured or co-cultured in 96 or 384-well plates until confluence followed by the addition of compounds prepared in DMSO at a final concentration of ≤0.1%. In each cell-based system, primary cells from heathy donors (2-6 donors) were pooled and treated with compounds at 1 and 10 μM dose 1h prior to stimulation and remain in culture as indicated in Example 825, Example 826, Example 827, Example 828, Example 829, Example 830, Example 831, Example 832, Example 833, Example 834, Example 835, Example 836 and Example 837. For on the BioMAP® Diversity PLUS® Panel, please see the following references, which are incorporate herein.\nFollowing the general procedure as described in Example 824, Peripheral blood mononuclear cells were co-cultured with venular endothelial cells and treated with soluble antigen (T-cell ligands) (Sag system) in the presence or absence of compounds to model autoimmune and chronic inflammation. Biomarkers read out were; MCP-1, CD38, CD40, E-selectin, CD69, IL-8, MIG, PBMC cytotoxicity, Proliferation and SRB."}, "[2]": {"test_system": "Pkd1−/− mouse inner medullary collecting duct cells (mIMRFNPKD 5E4)", "assay": "mPKD 3D cyst swelling assay (forskolin-induced)", "type": "cell-based", "settings": "after 72 hours of forskolin exposure", "method": "Cell model and control compounds. mIMCD3 WT cells were obtained via ATCC and modified to create the mIMRFNPKD 5E4 cell line, which has a CRISPR-Cas mediated knockout for Pkd1 as described SLAS Discov. 2017 September; 22(8):974-984. doi: 10.1177/2472555217716056. Cells were cultured in DMEM/F12 (Sigma)+10% FBS (Sigma)+0.5% Pen/Strep (Gibco)+1% GluMax (Gibco). Control compounds used were forskolin (Calbiochem, 344282), Rapamycin (Selleckchem, S1039) and Staurosporin (Selleckchem, S1421).\nThe 3D mouse cyst swelling assay was performed with Pkd1^−/− mouse inner medullary collecting duct cells (mIMRFNPKD 5E4). The cyst swelling protocol that was used was described previously (SLAS Discov. 2017 September; 22(8):974-984. doi: 10.1177/2472555217716056), with further optimization.\n3D culture and compound exposure. mIMRFNPKD 5E4 cells were mixed with Cyst-Gel (OcellO BV). 15 μL of cell-gel mix was pipetted to 384-well plates (Greiner μClear, Greiner Bio-One B.V.) using a CyBio Felix 96/60 robotic liquid dispenser (Analyik Jena AG). Gel-cell mix was plated at a final cell density of 2250 cells per well. After gel polymerization at 37° C. for 30 minutes, 33 μL culture medium was added to each well. Cells were grown in the gel for 96 hours, after which the cells were co-exposed with forskolin (Calbiochem, 344282) and one the following molecules: reference compound Rapamycin (SelleckChem, S1039), toxic control compound Staurosporin (SelleckChem, S1421) or test compounds.\nSample processing. After 72 hours, cultures were fixed with 4% Formaldehyde (Sigma Aldrich) and simultaneously permeabilized with 0.2% Triton-X100 (Sigma Aldrich) and stained with 0.25 μM rhodamine-phalloidin (Sigma Aldrich) and 0.1% Hoechst 33258 (Sigma Aldrich) in 1×PBS (Sigma Aldrich) for 2 days at 4° C., protected from light. After fixation and staining, plates were washed with 1×PBS, sealed with a Greiner SilverSeal (Greiner Bio-One B.V.) and stored at 4° C. prior to imaging.\nImaging and image analysis. Imaging was done using Molecular Devices ImageXpress Micro XLS (Molecular Devices) with a 4× NIKON objective. For each well around 35 images in the Z-direction were made for both channels, capturing the whole z-plane in each image. Image analysis was performed using Ominer™ software (OcellO BV). Cysts were segmented using detection of Hoechst-stained nuclei and Rhodamine-phalloidin-stained cellular f-actin. Cyst area was determined by calculating for the area in px of each object in every in-focus plain. This was averaged per well. (N represented is number of wells) Fraction of apoptotic nuclei as an indicator of toxicity was calculated as the amount of nuclei without actin signal relative to the total amount of nuclei, both as count-measurements. Statistics was done using KNIME Analytics Platform (Konstanz, Germany, http://www.knime.org/), graphs were prepared in GraphPad Prism 6 (GraphPad Software, La Jolla, Calif.)."}}}
{"smiles": "C[C@@H](O)CC(=O)CC(=O)SCCNC(=O)CCNC(=O)[C@H](O)C(C)(C)CO", "note": "[Compound 42, (2R)-2,4-dihydroxy-N-[2-[(2-[[(5R)-5-hydroxy-3-oxohexanoyl]sulfanyl]ethyl)carbamoyl]ethyl]-3,3-dimethylbutanamide]", "values": [{"measurement": "% increase in Proliferation", "setting": "[1]", "value": "≥10", "unit": "%"}]}
{"smiles": "CC(C)(CO)[C@@H](O)C(=O)NCCC(=O)NCCSC(=O)CCCO", "note": "[Compound 1304, (2R)-2,4-dihydroxy-N-[2-([2-[(4-hydroxybutanoyl)sulfanyl]ethyl]carbamoyl)ethyl]-3,3-dimethylbutanamide]", "values": [{"measurement": "% prevention of forskolin-induced cyst swelling", "setting": "[2]; 10 uM", "value": "≥10", "unit": "%"}]}
{"smiles": "COC(=O)CC(SCCNC(=O)CCNC(=O)[C@H](O)C(C)(C)COC(C)=O)C(=O)OC", "note": "(stereo partly drawn) [Compound 149, 1,4-dimethyl 2-[(2-[3-[(2R)-4-(acetyloxy)-2-hydroxy-3,3-dimethylbutanamido]propanamido]ethyl)sulfanyl]butanedioate]", "values": [{"measurement": "% prevention of forskolin-induced cyst swelling", "setting": "[2]; 50 uM", "value": "≥10", "unit": "%"}]}
{"smiles": "CC(C)(CO)[C@@H](O)C(=O)NCCC(=O)NCCSC(=O)[C@@H](N)Cc1ccc(O)c(O)c1", "note": "[Compound 371, (2R)—N-[2-[(2-[[(2S)-2-amino-3-(3,4-dihydroxyphenyl)propanoyl]sulfanyl]ethyl)carbamoyl]ethyl]-2,4-dihydroxy-3,3-dimethylbutanamide]", "values": [{"measurement": "% decrease in Proliferation", "setting": "[1]", "value": "≥10", "unit": "%"}, {"measurement": "% increase in PBMC cytotoxicity", "setting": "[1]", "value": "≥10", "unit": "%"}]}
{"smiles": "CCCCCCC(=O)SCCNC(=O)CCNC(=O)[C@H](O)C(C)(C)CO", "note": "[Compound 372, (2R)—N-(2-[[2-(heptanoylsulfanyl)ethyl]carbamoyl]ethyl)-2,4-dihydroxy-3,3-dimethylbutanamide]", "values": [{"measurement": "% increase in Proliferation", "setting": "[1]", "value": "≥10", "unit": "%"}]}
{"smiles": "C[C@H](CC(=O)SCCNC(=O)CCNC(=O)[C@H](O)C(C)(C)CO)OC(=O)CCC(=O)O", "note": "[Compound 1243, 4-{[(2R)-4-[(2-{3-[(2R)-2,4-dihydroxy-3,3-dimethylbutanamido]propanamido}ethyl)sulfanyl]-4-oxobutan-2-yl]oxy}-4-oxobutanoic acid]", "values": [{"measurement": "% prevention of forskolin-induced cyst swelling", "setting": "[2]; 50 uM", "value": "≥10", "unit": "%"}]}
{"smiles": "CC(=O)SCCNC(=O)CCNC(=O)[C@H](O)C(C)(C)COC(=O)[C@@H](N)Cc1ccc(O)c(O)c1", "note": "[Compound 498, (3R)-3-[(2-[[2-(acetylsulfanyl)ethyl]carbamoyl]ethyl)carbamoyl]-3-hydroxy-2,2-dimethylpropyl (2S)-2-amino-3-(3,4-dihydroxyphenyl)propanoate]", "values": [{"measurement": "% decrease in Proliferation", "setting": "[1]", "value": "≥10", "unit": "%"}]}
{"smiles": "CC(C)(CO)[C@@H](O)C(=O)NCCC(=O)NCCSC(=O)C1CCC(=O)N1", "note": "(stereo partly drawn) [Compound 1227, S-2-{3-[(R)-2,4-dihydroxy-3,3-dimethylbutyrylamino]propionylamino}ethyl 5-oxo-2-pyrrolidinecarbothioate]", "values": [{"measurement": "% prevention of forskolin-induced cyst swelling", "setting": "[2]; 10 uM", "value": "≥10", "unit": "%"}]}
